From PMC4940736 (Scientific Reports, 2016) come the findings set out here.

Data set [1] addresses EBOV NP (residues 36–351) (Zaire ebolavirus, UniProt P18272). Type of data set: biochemical, Ebola virus.
Data set [2] concerns the target T1, EBOV NP (amino acids 36–351) (Zaire ebolavirus, UniProt P18272). Type of data set: binding, Ebola virus.
Data set [3] concerns the target T2, EBOV NP (Zaire ebolavirus, UniProt P18272). In kind it is binding, Ebola virus.
In data set [4] the target is T3, MARV NP (Lake Victoria marburgvirus, UniProt P27588). In kind it is binding, Marburg virus.
Data set [5] has as its target T4, MARV NP (amino acids 19–370) (Lake Victoria marburgvirus, UniProt P27588). In kind it is binding, Marburg virus.
Data set [6] concerns the target MARV NP (residues 19–370) (Lake Victoria marburgvirus, UniProt P27588). In kind it is biochemical, Marburg virus.
Data set [7] addresses T2, EBOV NP. Type of data set: binding, Ebola virus. This is another data set of the same source.
Data set [8] addresses T3, MARV NP. Type of data set: binding, Marburg virus. This is another data set of the same source.
The target of data set [9] is T1, EBOV NP (amino acids 36–351). In kind it is binding, Ebola virus. This is another data set of the same source.
The target of data set [10] is oligomeric EBOV NP 36–450 / ssRNA (Zaire ebolavirus, UniProt P18272). Briefly: biochemical.
The target in data set [11] is T4, MARV NP (amino acids 19–370). In kind it is binding, Marburg virus. This is another data set of the same source.
Data set [12] has as its target T1, EBOV NP (amino acids 36–351). Type of data set: binding, Ebola virus. The source holds these as a separate data set.
Data set [13] deals with T4, MARV NP (amino acids 19–370). Type of data set: binding, Marburg virus. This is another data set of the same source.
Data set [14] concerns the molecule itself. Put plainly: SEC. In general terms: In gel filtration, larger molecules generally elute earlier.
Data set [15] concerns the molecule itself. Put plainly: SEC-MALS.

“And” between values parts separate entries of the source, which are not always exact repeats. Equal entries are not always repeated.

In the case of `O=C1C[C@@H](c2ccc(O)cc2)Oc2cc(O[C@@H]3O[C@H](CO)[C@@H](O)[C@H](O)[C@H]3O)ccc21` [GC2, Neoliquiritin], the “Monomer (%)” value in data set [1] is 100%; in data set [6], 66.3%. Besides, the “S/N ratio (peak intensity protein incubation sample vs control)” value (shortened to “S/N ratio”) worked out at 1.31±0.27 in [2] and 1.87±0.38 in [5]. For the same molecule, the “Corr response (SPR)” value in [3] is recorded as 2.0 RU; in data set [4] it was 1.1 RU. In addition, in data set [6], the “Oligomer(%) >1000 kDa” value stood at 4.0%. For the same molecule, in data set [6], the “Tetramer (%)” value stood at 29.7%. Further, the “△Tm” value came to 0.0 ± 0.0 °C in data set [7] and 0.2 ± 0.3 °C in data set [8].

As to `O=c1cc(-c2ccc(O)cc2)oc2c([C@@H]3OC[C@H](O)[C@H](O)[C@H]3O)c(O)c([C@@H]3O[C@H](CO)[C@@H](O)[C@H](O)[C@H]3O)c(O)c12` [GC3, Schaftoside], the “S/N ratio” value was 1.47±0.30 in data set [2] and 1.67±0.31 in data set [5]. Further, the “Corr response (SPR)” value in data set [3] was 2.9 RU; in data set [4] it was 2.8 RU. The results for the “△Tm” value in data set [7] and in [8] were −0.6 ± 0.1 °C and −0.4 ± 0.3 °C, respectively.

For the molecule `O=C(/C=C/c1ccc(O)cc1)c1ccc(O[C@@H]2O[C@H](CO)[C@@H](O)[C@H](O)[C@H]2O)cc1O` [GC4, Neoisoliquiritin], the entries for the “S/N ratio” value in data set [2] and in data set [5] were 1.46±0.29 and 1.59±0.41, respectively. Further, the “△Tm” value came out at 0.1 ± 0.2 °C in [7] and 0.2 ± 0.3 °C in [8].

For the molecule `COc1ccc(-c2coc3cc(O[C@@H]4O[C@H](CO)[C@@H](O)[C@H](O)[C@H]4O)ccc3c2=O)cc1` [GC5, Ononin], the “S/N ratio” value in data set [2] is reported as 1.34±0.31; in data set [5] it was 1.18±0.43. The “△Tm” value is −0.2 ± 0.3 °C in [7] and 0.0 ± 0.5 °C in data set [8].

With `CC1(C)[C@@H](O[C@H]2O[C@H](C(=O)O)[C@@H](O)[C@H](O)[C@H]2O[C@@H]2O[C@H](C(=O)O)[C@@H](O)[C@H](O)[C@H]2O)CC[C@]2(C)[C@H]3C(=O)C=C4[C@@H]5C[C@@](C)(C(=O)O)CC[C@]5(C)CC[C@@]4(C)[C@]3(C)CC[C@@H]12` [GC6, Glycyrrhizin], the figures for the “S/N ratio” value in [2] and in [5] were 1.84±0.12 and 1.46±0.73, respectively. The “△Tm” value is 0.1 ± 0.2 °C in data set [7] and −0.2 ± 0.3 °C in data set [8].

For orientation: IC50 means the concentration needed to halve the response being measured. A lower IC50 goes with inhibition by little substance. As to `CC1(C(=O)O)CCC2(C)CCC3(C)C(=CC(=O)C4C5(C)CCC(O)C(C)(C)C5CCC43C)C2C1` (stereo not drawn) [GC7, 18β-Glycyrrhetinic acid], the “Oligomer(%) <1000 kDa” value in [1] is 68.7%. Further, the figures for the “BF% (fraction of compound associated with the NP protein)” value in data set [9] and in [11] were 11.0% ± 1.1% and 16.9% ± 4.1%, respectively. Also, the figures for the S/N in data set [9] and in data set [11] were 2.7 ± 0.3 and 2.3 ± 0.4, respectively. In data set [10], this molecule came in with an IC50 of around 160 µM. The “S/N ratio” value in data set [2] is on record as 2.62±0.46; in [5] it was 2.79±0.34. The results for the “Corr response (SPR)” value in data set [3] and in data set [4] were 128 RU and 35.8 RU, respectively. Moreover, the “Monomer (%)” value in [6] is 71.0% and 84.5%. For the same molecule, the “Oligomer(%) >1000 kDa” value in [6] was 6.2% and 6.9%. Further, the “decrease of the protein melting temperature” value in [7] amounted to 9 °C. Also, the “△Tm” value is −9.2 ± 0.4 °C in [7] and −1.1 ± 0.1 °C in data set [8].

With `O=C1C[C@@H](c2ccc(O)cc2)Oc2cc(O)ccc21` [GC8, Liquiritigenin], the results for the “S/N ratio” value in data set [2] and in data set [5] were 0.96±0.22 and 1.28±0.18, respectively.

In the case of `COc1ccc(-c2coc3cc(O)ccc3c2=O)cc1O` [GC9, Calycosin], the figures for the “S/N ratio” value in [2] and in [5] were 1.21±0.25 and 1.60±0.36, respectively.

On to `CC1(C)[C@@H](O)CC[C@]2(C)[C@H]3C(=O)C=C4[C@H]5C[C@@](C)(C(=O)O)CC[C@]5(C)CC[C@@]4(C)[C@]3(C)CC[C@@H]12` [GC10, 18α-Glycyrrhetinic acid], for which the figures for the “Monomer (%)” value in [1] and in data set [6] were 64.0% and 63.3%, respectively. The “Oligomer(%) >1000 kDa” value in data set [1] was 36.0%; in [6] it was 0.5%. In addition, the “BF% (fraction of compound associated with the NP protein)” value is given as 0.1% ± 0.0% in [9] and 0.9% ± 0.5% in data set [11]. The S/N in data set [9] was found to be 1.2 ± 0.1; in [11] it was 1.8 ± 0.1. The “S/N ratio” value in data set [2] turned out to be 2.62±0.46; in [5] it was 2.79±0.34. Also, the “Corr response (SPR)” value in [3] came out at 8.8 RU; in [4], 5.2 RU. Also, the “Tetramer (%)” value in [6] is on record as 36.2%. Also, the “△Tm” value in data set [7] was −0.8 ± 0.4 °C; in data set [8], −0.2 ± 0.3 °C.

With `O=C(/C=C/c1ccc(O)cc1)c1ccc(O)cc1O` [GC11, Isoliquiritigenin], the “S/N ratio” value in [2] is on record as 1.11±0.16; in [5], 1.08±0.04.

Take `O=C1C[C@@H](c2ccc(O[C@@H]3O[C@H](CO)[C@@H](O)[C@H](O)[C@H]3O)cc2)Oc2cc(O)ccc21` [GC12, Liquiritin]: the figures for the “S/N ratio” value in data set [2] and in data set [5] were 1.31±0.27 and 1.87±0.38, respectively.

Take `C=CC(C)(C)c1cc(/C=C/C(=O)c2ccc(O)cc2)c(OC)cc1O` [GC13, Licochalcone A]: the “Monomer (%)” value amounted to 100% in data set [1] and 29.0% in [6]. Moreover, the “BF% (fraction of compound associated with the NP protein)” value in [9] was 0.3% ± 0.0%; in data set [11], 0.1% ± 0.1%. The S/N in [9] was 6.0 ± 1.3; in data set [11], 11.0 ± 1.9. For the same molecule, the “S/N ratio” value in data set [2] worked out at 5.61±1.11; in data set [5], 6.54±0.52. Moreover, the “Corr response (SPR)” value in data set [3] worked out at 43.8 RU; in data set [4], 29.2 RU. Besides, in data set [6], the “Oligomer(%) >1000 kDa” value was 2.6%. Moreover, in [6], the “Tetramer (%)” value was found to be 68.3%. Also, the “increase of tetramer formation” value in data set [6] was above 2 fold. The “△Tm” value in data set [7] is −3.2 ± 0.3 °C; in data set [8] it was 0.7 ± 0.6 °C.

As for `O=C(/C=C/c1ccc(O[C@@H]2O[C@H](CO)[C@@H](O)[C@H](O)[C@H]2O)cc1)c1ccc(O)cc1O` [GC14, Isoliquiritin], the “S/N ratio” value in data set [2] stood at 0.49±0.02; in [5], 1.61±0.19.

For the molecule Liquiritin apioside [GC1], the “S/N ratio” value worked out at 1.37±0.28 in data set [2] and 1.85±0.35 in [5]. Besides, the “Corr response (SPR)” value in data set [3] is 3.1 RU; in data set [4] it was 2.0 RU. The entries for the “S/N AVE” value in [12] and in data set [13] were 1.07 and 1.53, respectively. In addition, the results for the VIP in data set [12] and in data set [13] were 2.03 and 5.68, respectively. For the same molecule, the figures for the “△Tm” value in [7] and in data set [8] were −0.5 ± 0.2 °C and −0.2 ± 0.3 °C, respectively.

B1: Ebola virus nucleoprotein, residues 36-450 (EBOV NP 36-450) (domain or fragment)
chain: VRQRVIPVYQVNNLEEICQLIIQAFEAGVDFQESADSFLLMLCLHHAYQGDYKLFLESGAVKYLEGHGFRFEVKKRDGVKRLEELLPAVSSGKNIKRTLAAMPEEETTEANAGQFLSFASLFLPKLVVGEKACLEKVQRQIQVHAEQGLIQYPTAWQSVGHMMVIFRLMRTNFLIKFLLIHQGMHMVAGHDANDAVISNSVAQARFSGLLIVKTVLDHILQKTERGVRLHPLARTAKVKNEVNSFKAALSSLAKHGEYAPFARLLNLSGVNNLEHGLFPQLSAIALGVATAHGSTLAGVNVGEQYQQLREAATEAEKQLQQYAESRELDHLGLDDQEKKILMNFHQKKNEISFQQTNAMVTLRKERLAKLTEAITAASLPKTSGHYDDDDDIPFPGPINDDDNPGHQDDDPTDSQ
As to B1, the binding result in data set [14] was “binds”.

B2: Marburg virus nucleoprotein core domain (MARV NP, amino acids 19-370) (domain or fragment)
chain: RNKKVILFDTNHQVSICNQIIDAINSGIDLGDLLEGGLLTLCVEHYYNSDKDKFNTSPVAKYLRDAGYEFDVIKNADATRFLDVSPNEPHYSPLILALKTLESTESQRGRIGLFLSFCSLFLPKLVVGDRASIEKALRQVTVHQEQGIVTYPNHWLTTGHMKVIFGILRSSFILKFVLIHQGVNLVTGHDAYDSIISNSVGQTRFSGLLIVKTVLEFILQKTDSGVTLHPLVRTSKVKNEVASFKQALSNLARHGEYAPFARVLNLSGINNLEHGLYPQLSAIALGVATAHGSTLAGVNVGEQYQQLREAAHDAEVKLQRRHEHQEIQAIAEDDEERKILEQFHLQKTEITH
For orientation: stoichiometry N means a count of units in the complex or per binding partner. Turning to B2, in data set [15], the “stoichiometry N” value is 4.
